Source: patent publication US4929602A, “Method of inhibiting platelet dependent arterial thrombosis” (Scripps Clinic and Research Foundation, priority 1988, dated 1990)

Experiments:
[1] = Plasma levels of PPACK (antithrombin activity) in carotid endarterectomy study; format: in vivo, baboon; settings: iv
[2] = Blood and plasma determinations during dialyzer exposure (APTT, FPA, fibrinogen, cell counts, bleeding time, PF4, βTG, C3a); format: in vivo, baboon
Description: PPACK or standard heparin (from porcine intestinal mucosal, Invenex Laboratories, Chagrin Falls, Ohio) was infused into the arterial limb of the vascular shunt immediately proximal to the dialyzer.
Blood cell counts (platelets, white blood cells, and red blood cells) were performed on disodium EDTA anticoagulated whole blood using a J. T. Baker whole blood analyzer Model 810 (Allentown, Pa.). Hanson et al., J. Clin. Invest. 75:1591-99 (1985); and Hanson et al., Arteriosclerosis, 5:595-603 (1985). Standard template bleeding times, were performed on the shave volar surface of the forearm in a manner as described in Harker et al., New. Eng. J. Med., 287:155-59 (1972) and Malpass et al., Blood, 57:736-40 (1981). Bleeding times were done in duplicate and averaged. Commercially available radioimmunometric assays were carried out to measure plasma levels of platelet factor 4 (PF4) (Abbott Laboratories, North Chicago, Ill.), β-thromboglobulin (βTG) (Amersham Corporation, Arlington Heights, Ill.), fibrinopeptide A (FPA) (MICRO USA Inc., New York, N.Y.) and activated complement C3 antigen (C3a) (Amersham Corp.). Blood samples for these plasma assays were collected, processed and determined as described in the procedures of Example 1 and in Malpass et al., ibid. and Hanson et al., Arterosclerosis, 5:595-603 (1985). […] (APTT) were performed using a standard method (Activated PTT reagent, Ortho Diagnostics, Raritain, N.J.). A fibrometer (Fibrosystem, Division of Becton and Dickinson and Co., Cockeysville, […].) was used for endpoint clot detection as described in Biggs, R., Human Blood Coagulation, Haemostasis and Thrombosis, Oxford, Blackwell Scientific, pages 657-750 (1976). Fibrinogen was determined by a total clottable protein method described by Jacobsson K., Scand. J. Clin. Lab. Invest., 7(Suppl. 14):9-54 (1955).

[3] = Plasma activity levels of heparin (anti-Xa) and PPACK (antithrombin) during dialyzer study; format: in vivo, baboon; settings: for level at 0.5 h / level at 1 h: plasma, 100 nmol/kg per min, Plasma PPACK; for level at 0.5 h: 30 min; for level at 1 h: 60 min
Description: Samples were centrifuged (2000×g, for 5 min) immediately after collection and the recovered plasma was frozen until assay. […] In some studies PPACK levels were determined at three sites: (i) systemic (ii) immediately proximal to the dialyzer but distal to the site of the PPACK infusion, and (iii) immediately distal to the dialyzer. Levels of heparin activity were determined by measuring the potentiating effect of heparin of plasma anti-Xa activity using a synthetic chromogenic substrate (Stachrom Heparin, Stago, France). Teien et al., Thrombo Research, 10:399-410 (1977).

Hemostatic Function = tested on: Hemostatic Function; parameters: species or system baboon; settings: in vivo
Description: After continuous infusion of a | given dose for 15 minutes (min.), the template bleeding time measurement | was begun and blood was drawn for thrombin time determinations. Escalatio | to the next dose was undertaken only after the bleeding time measurement | had been completed. The results are expressed as means ± one standard | deviation.

[4] = PPACK concentration in the plasma during infusion (graft study); format: in vivo, baboon; settings: intravenous infusion at 100 nmol/kg/min (about 15 minutes)
Description: Methods for determining the concentration of a Formula (1) peptide in the plasma are well known in the art, a preferred method being that described by Collen et al., J. Lab. Clin. Med., 99:76-83 (1982), whose disclosures are incorporated herein by reference.

[5] = Collen et al., cited from earlier work
[6] = Template bleeding time and platelet count in carotid endarterectomy study (Example 2B); format: in vivo, baboon; settings: treated animals, day 3
Description: […] The mean platelet count was 318±70×10^3 /μl in the control group and 296±53×10^3 /μl in the treated group.
Bleeding time measurements were performed in duplicate on the shaved volar surface of the forearm, using the standard template method as previously described for studies in baboons. Harker et al., Blood, 58:824-834 (1980).

[7] = tested on: primate model of vascular graft thrombosis; settings: aspirin 32.5 mg/kg/day orally 2 hours prior to graft placement; previous studies; cited from earlier work

| SMILES | level at 1.5 h ([1]; 100 nmol/kg/min, 90 min after infusion) | level at 0.5 h ([1]; 30 min after infusion, 100 nmol/kg/min for about 1 hour) | platelet count ([2]; during dialyzer exposure) | C3a peak level ([2]; during dialyzer use) | white blood cell count, early fall ([2]; during dialyzer use) | PPACK systemic plasma level ([3]; 100 nmol/kg per min infused proximal to the dialyzer) | level at 0.5 h ([3]; Postdialyzer) | level at 1 h ([3]; Postdialyzer) | level at 0.5 h ([3]; Predialyzer) | level at 1 h ([3]; Predialyzer) | level at 0.5 h ([3]; Systemic) | level at 1 h ([3]; Systemic) | effect on heart rate or blood pressure (Hemostatic Function) | platelet count (Hemostatic Function) | PPACK concentration in the plasma [4] | T50 removal rate from the circulation [5] | half-life of PPACK's ability to inhibit fibrin formation ([5]; rabbits) | Platelet counts [6] | effect on vascular graft 111In-platelet deposition [7] |
| --- | --- | --- | --- | --- | --- | --- | --- | --- | --- | --- | --- | --- | --- | --- | --- | --- | --- | --- | --- |
| N=C(N)NCCC[C@H](NC(=O)[C@@H]1CCCN1C(=O)[C@H](N)Cc1ccccc1)C(=O)CCl [PPACK, D-phenylalanyl-L-propyl-L-arginyl-chloromethyl ketone] | 1120 ± 270 ng/mL | 3720 ± 610 ng/mL | 401 ± 17 × 10^3 /μL | 1989 ± 360 ng/mL | 5,900±810 cells/ul | 1.5 ± 0.06 µg/mL | 3900 ± 500 ng/mL | 4100 ± 1200 ng/mL | 3050 ± 550 ng/mL | 3650 ± 650 ng/mL | 1400 ± 400 ng/mL | 1600 ± 500 ng/mL | No effect | 269 ± 54 × 10^9 /L | 1 to 2 µg/mL | less than 3 min | about 2.9 minutes | 296±53 ×10^3 /μl | – |
| CC(=O)Oc1ccccc1C(=O)O [aspirin] | – | – | – | – | – | – | – | – | – | – | – | – | – | – | – | – | – | – | neither aspirin (32.5 mg/kg/day given orally 2 hours prior to graft placement) not aspirin combined with heparin (100 units/kg) affected |
